Data as given in patent publication US12655116B2, “Substituted isophthalic acid diamides” (Bayer Aktiengesellschaft, priority 2020, dated 2026).

Columns and labels:
ECHCG [1] = experiment: Post-emergence herbicidal action against ECHCG; assay type: in vivo, Echinochloa crus-galli
In short: (§1)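 Post-emergence greenhouse test; one-leaf stage, 2–3 wk post-sowing, sandy loam. Foliar spray of WP/EC in water, 600–800 l/ha, +0.2% wetting agent. Visual % action at ~3 wk vs untreated (100% = plants dead).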

SETVI [2] = experiment: Post-emergence herbicidal action against SETVI; assay type: in vivo, Setaria viridis; conditions: dosage 20 g/ha
In short: as §1

VIOTR [3] = experiment: Post-emergence herbicidal action against VIOTR; assay type: in vivo, Viola tricolor; conditions: 20 g/ha; for pest or weed control at 20 g/ha: Viola tricolor, 504 h
In short: as §1

MATIN [4] = experiment: Pre-emergence herbicidal action against MATIN; assay type: in vivo, Matricaria inodora; conditions: for pest or weed control at 20 g/ha / pest or weed control at 80 g/ha: Tripleurospermum inodorum, 504 h
In short: (§2)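 Herbicidal effect was assessed 3 weeks after treatment by visual comparison with untreated controls, 100% denoting dead plants. Aqueous WP or EC preparations had been applied at 600 to 800 l/ha with 0.2% wetting agent to the soil covering freshly sown seeds.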

VERPE [5] = experiment: Pre-emergence herbicidal action against VERPE; assay type: in vivo, Veronica persica
In short: as §2

VERPE [6] = experiment: Post-emergence herbicidal action against VERPE; assay type: in vivo, Veronica persica; conditions: 20 g/ha; for pest or weed control at 20 g/ha: Veronica persica, 504 h
In short: as §1

ECHCG [7] = experiment: Pre-emergence herbicidal action against ECHCG; assay type: in vivo, Echinochloa crus-galli; conditions: 80 g/ha
In short: as §2

ALOMY [8] = experiment: Pre-emergence herbicidal action against ALOMY; assay type: in vivo, Alopecurus myosuroides; conditions: 80 g/ha, pre-emergence, scored visually after 3 weeks vs untreated controls (100% = plants have died, 0% = like control plants); for pest or weed control at 80 g/ha: Alopecurus myosuroides, 504 h
In short: as §2

VIOTR [9] = experiment: Pre-emergence herbicidal action against VIOTR; assay type: in vivo, Viola tricolor
In short: as §2

POLCO = experiment: Pre-emergence herbicidal action against POLCO; assay type: in vivo, Polygonum convolvulus; conditions: for pest or weed control at 80 g/ha: Fallopia convolvulus, 504 h
Text: Seeds of monocotyledonous and dicotyledonous weed plants and crop plants are laid out in sandy loam soil in wood-fiber pots and covered with soil. The compounds of the invention, formulated in the form of wettable powders (WP) or as emulsion concentrates (EC), are then applied to the surface of the covering soil in the form of an aqueous suspension or emulsion at a water application rate equivalent to 600 to 800 l/ha, with addition of 0.2% wetting agent. After the treatment, the pots are placed in a greenhouse and kept under good growth conditions for the trial plants. The damage to the test plants is scored visually after a test period of 3 weeks by comparison with untreated controls (herbicidal activity in percent (%): 100% activity=the plants have died, 0% activity=like control plants). […] The tables below illustrate, in an illustrative manner, the post-emergence herbicidal action of the compounds of the invention, the herbicidal activity being stated in percent.

DIGSA [10] = experiment: Pre-emergence herbicidal action against DIGSA; assay type: in vivo, Digitaria sanguinalis
In short: as §2

MATIN [11] = experiment: Post-emergence herbicidal action against MATIN; assay type: in vivo, Matricaria inodora; conditions: dosage 20 g/ha
In short: as §1

ABUTH [12] = experiment: Pre-emergence herbicidal action against ABUTH; assay type: in vivo, Abutilon theophrasti; conditions: for Pre-emergence action against ABUTH (herbicidal activity) / pest or weed control at 80 g/ha: 80 g/ha, scored visually after 3 weeks vs untreated controls (100% = plants have died, 0% = like control plants); for Pre-emergence action against ABUTH (herbicidal activity in percent): dosage 20 g/ha, scored visually after 3 weeks vs untreated controls, 100% = plants have died, 0% = like control plants; for pest or weed control at 80 g/ha: Abutilon theophrasti, 504 h
In short: as §2

SETVI [13] = experiment: Pre-emergence herbicidal action against SETVI; assay type: in vivo, Setaria viridis; conditions: for pest or weed control at 80 g/ha: Setaria viridis, 504 h
In short: as §2

PHBPU = experiment: Post-emergence herbicidal action against PHBPU; assay type: in vivo, Pharbitis purpurea; conditions: dosage 20 g/ha
In short: as §1

AMARE [14] = experiment: Pre-emergence herbicidal action against AMARE; assay type: in vivo, Amaranthus retroflexus
In short: as §2

ABUTH [15] = experiment: Post-emergence herbicidal action against ABUTH; assay type: in vivo, Abutilon theophrasti; conditions: visual assessment about 3 weeks after treatment vs untreated controls; for pest or weed control at 5 g/ha / pest or weed control at 20 g/ha: Abutilon theophrasti, 504 h
In short: as §1

ALOMY [16] = experiment: Post-emergence herbicidal action against ALOMY; assay type: in vivo, Alopecurus myosuroides; conditions: dosage 20 g/ha, visual assessment about 3 weeks after treatment vs untreated controls; for pest or weed control at 20 g/ha: Alopecurus myosuroides, 504 h
In short: as §1

AMARE [17] = experiment: Post-emergence herbicidal action against AMARE; assay type: in vivo, Amaranthus retroflexus; conditions: 20 g/ha, visual assessment about 3 weeks after treatment, 100% = plants have died, 0% = like control plants; for pest or weed control at 20 g/ha: Amaranthus retroflexus, 504 h
In short: as §1

DIGSA [18] = experiment: Post-emergence herbicidal action against DIGSA; assay type: in vivo, Digitaria sanguinalis; conditions: 20 g/ha
In short: as §1

[19] = 20 g/ha, scored visually after 3 weeks vs untreated controls, 100% = plants have died, 0% = like control plants
[20] = 80 g/ha, scored visually after 3 weeks vs untreated controls (100% = plants have died, 0% = like control plants)
[21] = Amaranthus retroflexus, 504 h, 80 g/ha, scored visually after 3 weeks vs untreated controls, 100% = plants have died, 0% = like control plants

Row | SMILES | Post-emergence action against ECHCG in % (ECHCG [1]; dosage 5 g/ha) [%] | Post-emergence action against ECHCG in % (ECHCG [1]; dosage 20 g/ha) [%] | Post-emergence action against SETVI in % (SETVI [2]) [%] | Post-emergence action against VIOTR in % (VIOTR [3]) [%] | Pre-emergence action against MATIN in % (MATIN [4]; dosage 20 g/ha) [%] | Pre-emergence action against MATIN in % (MATIN [4]; dosage 80 g/ha) [%] | Pre-emergence action against VERPE in % (VERPE [5]; dosage 80 g/ha) [%] | Post-emergence action against VERPE in % (VERPE [6]) [%] | Pre-emergence action against ECHCG in % (ECHCG [7]) [%] | Pre-emergence action against ALOMY (herbicidal activity) (ALOMY [8]) [%] | Pre-emergence action against VIOTR in % (VIOTR [9]; dosage 20 g/ha) [%] | Pre-emergence action against VIOTR in % (VIOTR [9]; dosage 80 g/ha) [%] | Pre-emergence action against POLCO in % (POLCO; dosage 80 g/ha) [%] | Pre-emergence action against DIGSA in % (DIGSA [10]; dosage 20 g/ha) [%] | Pre-emergence action against DIGSA in % (DIGSA [10]; dosage 80 g/ha) [%] | Pre-emergence action against ABUTH (herbicidal activity) (ABUTH [12]) [%] | Pre-emergence action against SETVI in % (SETVI [13]; dosage 80 g/ha) [%] | Pre-emergence action against AMARE in % (AMARE [14]; [19]) [%] | Pre-emergence action against AMARE in % (AMARE [14]; [20]) [%] | Post-emergence action against ABUTH in % (ABUTH [15]; dosage 20 g/ha) [%] | other results
1 | CCn1nnnc1NC(=O)c1ccc(C(F)F)c(C(=O)NC)c1OC [Example 2-72] | 80 | 80 | 80 | 80 | 100 | 100 | 90 | 80 | 100 | 80 | 100 | 100 | 80 | 100 | 100 | 100 | 100 | 100 | 100 | 80 | Pre-emergence action against POLCO in % (POLCO; dosage 20 g/ha): 80%; Post-emergence action against MATIN in % (MATIN [11]): 80%; Pre-emergence action against ABUTH (herbicidal activity in percent) (ABUTH [12]): 100%; Post-emergence action against PHBPU in % (PHBPU): 80%; Post-emergence action against ABUTH in % (ABUTH [15]; dosage 5 g/ha): 80%
2 | CCn1nnnc1NC(=O)c1ccc(C(F)F)c(C(=O)NCCOC)c1Cl [Example 2-156] | 90 | 90 | 80 | 80 | 100 | 100 | 100 | 90 | 100 | 100 | – | 100 | 90 | 100 | 100 | 100 | 100 | 100 | 100 | 90 | Pre-emergence action against VERPE in % (VERPE [5]; dosage 20 g/ha): 80%; Post-emergence action against ALOMY in % (ALOMY [16]): 90%; Post-emergence action at 20 g/ha against AMARE in % (AMARE [17]): 90%; Pre-emergence action against ABUTH (herbicidal activity in percent) (ABUTH [12]): 100%; Post-emergence action against DIGSA (DIGSA [18]): 80%; Post-emergence action against PHBPU in % (PHBPU): 90%
3 | CCNC(=O)c1c(OC)ccc(C(=O)Nc2nnnn2C)c1Cl [Example 1-355] | – | – | – | – | – | – | – | – | – | – | – | – | – | – | – | – | – | – | – | – | pest or weed control at 20 g/ha (ECHCG [1]; Echinochloa crus-galli, 504 h, dosage 20 g/ha): 90%; pest or weed control at 20 g/ha (VIOTR [3]): 100%; pest or weed control at 20 g/ha (MATIN [4]; dosage 20 g/ha): 80%; pest or weed control at 80 g/ha (MATIN [4]; dosage 80 g/ha): 100%; pest or weed control at 80 g/ha (VERPE [5]; Veronica persica, 504 h, dosage 80 g/ha): 100%; pest or weed control at 20 g/ha (ALOMY [16]): 80%; pest or weed control at 20 g/ha (AMARE [17]): 100%; pest or weed control at 20 g/ha (VERPE [6]): 90%; pest or weed control at 80 g/ha (ALOMY [8]): 90%; pest or weed control at 80 g/ha (VIOTR [9]; Viola tricolor, 504 h, dosage 80 g/ha): 100%; pest or weed control at 80 g/ha (POLCO; dosage 80 g/ha): 80%; pest or weed control at 80 g/ha (ABUTH [12]): 100%; pest or weed control at 80 g/ha (SETVI [13]; dosage 80 g/ha): 90%; pest or weed control at 20 g/ha (PHBPU; Ipomoea purpurea, 504 h): 80%; pest or weed control at 20 g/ha (AMARE [14]; Amaranthus retroflexus, 504 h, 20 g/ha, scored visually after 3 weeks vs untreated controls, 100% = plants have died, 0% = like control plants): 100%; pest or weed control at 80 g/ha (AMARE [14]; [21]): 100%; pest or weed control at 5 g/ha (ABUTH [15]; dosage 5 g/ha): 80%; pest or weed control at 20 g/ha (ABUTH [15]; dosage 20 g/ha): 100%
4 | CCNC(=O)c1c(C(F)F)ccc(C(=O)Nc2nnc(C)o2)c1Br [Example 6-165] | 90 | 100 | 80 | 80 | 80 | 100 | – | – | 100 | 80 | 80 | 90 | 80 | 90 | 100 | 100 | 100 | 100 | 100 | 90 | Post-emergence action against ALOMY in % (ALOMY [16]): 80%; Post-emergence action at 20 g/ha against AMARE in % (AMARE [17]): 80%; Post-emergence action against DIGSA (DIGSA [18]): 90%; Pre-emergence action against SETVI in % (SETVI [13]; dosage 20 g/ha): 90%
5 | CNC(=O)c1c(OC)ccc(C(=O)Nc2nnnn2C)c1Cl [Example 1-354] | – | – | – | – | – | – | – | – | – | – | – | – | – | – | – | – | – | – | – | – | pest or weed control at 20 g/ha (SETVI [2]; Setaria viridis, 504 h): 100%; pest or weed control at 20 g/ha (VIOTR [3]): 90%; pest or weed control at 20 g/ha (MATIN [4]; dosage 20 g/ha): 80%; pest or weed control at 80 g/ha (MATIN [4]; dosage 80 g/ha): 80%; pest or weed control at 20 g/ha (ALOMY [16]): 80%; pest or weed control at 20 g/ha (AMARE [17]): 100%; pest or weed control at 20 g/ha (VERPE [6]): 90%; pest or weed control at 80 g/ha (ALOMY [8]): 80%; pest or weed control at 80 g/ha (POLCO; dosage 80 g/ha): 80%; pest or weed control at 80 g/ha (ABUTH [12]): 100%; pest or weed control at 80 g/ha (SETVI [13]; dosage 80 g/ha): 90%; pest or weed control at 80 g/ha (AMARE [14]; [21]): 100%; pest or weed control at 5 g/ha (ABUTH [15]; dosage 5 g/ha): 90%; pest or weed control at 20 g/ha (ABUTH [15]; dosage 20 g/ha): 100%
